Test: ASTM D 1929 ignition temperature test, polypropylene beads with and without Deltamethrin
Type: physicochemical
Settings: polypropylene beads with 11 wt % Deltamethrin and 2 wt % Bumetrizole vs pure polypropylene beads; air velocity 25 mm/s; FIG. 1
Excerpt: ASTM D 1929: Standard Test Method for Determining Ignition Temperature of Plastics
The objective of this method is to determine at which temperature plastic material (sheet or granules) release flammable gases and vapors to such an extent, that an explosive mixture with air can be formed, that can be ignited with a pilot flame.
This “flash-point” of plastics is an important safety characteristic, which can be used to assess explosion and fire risk in plant where plastic material is processed, handled or stored. The objective of this method is to determine the temperature at which gases and vapors released from plastic sheets or granules spontaneously catch fire, i.e. without contact to an external ignition source. The Self-Ignition Temperature is relevant for the assessment of ignition risks due to hot surfaces in plant where plastic material is processed, e.g. in extruders. The tests are carried out by exposing the test item (sample) in an oven to a controlled stream of hot, fresh air. Ignition is detected by monitoring the temperature of the sample. For flash ignition, a pilot flame above the exhaust of the oven is used. For self-ignition test, no external ignition source is applied. The test are carried out in isothermal mode, i.e. at constant temperature. Several trials, at different temperatures are necessary to find the lowest temperature, at which ignition does occur. […]

CC1(C)[C@H](C(=O)O[C@H](C#N)c2cccc(Oc3ccccc3)c2)[C@@H]1C=C(Br)Br [Deltamethrin]
flash ignition temperature: higher flash ignition temperature
spontaneous ignition temperature: higher spontaneous ignition temperature

Source: patent publication US20150274932A1, “USE OF BIOCIDES AS FLAME RETARDANTS” (BAYER CROPSCIENCE AG, priority 2012, published 2015)
